Reference: patent US11195594B2, “Method for selecting anticancer agent based on protein damage information of individual to prevent anticancer agent side effects” (CIPHEROME, INC., priority 2015, dated 2021)

Assay: Side effect profile of pediatric leukemia patients during busulfan preconditioning for bone marrow transplantation
Format: in vivo, human
Method: Firstly, an analysis was conducted on 146 pediatric leukemia patients showing warning signs of serious side effects during treatment with the anticancer agent busulfan (Myleran, GlaxoSmithKline, Busulfex IV, Otsuka America Pharmaceutical, Inc.) to remove bone marrow as a preconditioning for bone marrow transplantation.

[1] = of 146 pediatric leukemia patients treated with busulfan

With `CS(=O)(=O)OCCCCOS(C)(=O)=O` [Busulfan] the “Number of patients: AUC 170 or higher” value (human, in vivo) was 71, the “Number of patients: Hepatic veno-occlusive disease” value (human, in vivo) was 18 and the “Number of patients: Intermediate toxicity grade 3 or higher” value (human, in vivo) was 11. The “Number of patients: Intermediate toxicity grade 4 or higher” value (human, in vivo) was 1, the “Number of patients: Short-term toxicity grade 3 or higher” value (human, in vivo) was 31 and the “Number of patients: Short-term toxicity grade 4 or higher” value (human, in vivo) was 2. The “Number of patients: Death” value [1] was 36 and the “Number of patients: Toxicity-related death” value [1] was 22.
